# Assay results as given in PubChem BioAssay (NCI).
#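 How tested: cells in 96-well plates exposed to compound for 48 hours at five concentrations. GI50 = concentration required for 50% inhibition of growth. Definition used: TGI = concentration required for complete inhibition of growth.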
# Assays:
# Test in all cases: inhibition of tumour cell growth, NCI panel, 48 h
# A498 renal = test system: A498 renal
# EKVX NSCLC = test system: EKVX NSCLC
# SK-MEL-2 melanoma = test system: SK-MEL-2 melanoma
# NCI-H23 lung = test system: NCI-H23 lung
# SW-620 colon = test system: SW-620 colon
# OVCAR-4 ovarian = test system: OVCAR-4 ovarian
# NCI/ADR-RES ovarian = test system: NCI/ADR-RES ovarian
# LOX IMVI melanoma = test system: LOX IMVI melanoma
# UACC-62 melanoma = test system: UACC-62 melanoma
# MDA-MB-231 breast = test system: MDA-MB-231 breast
# HT29 colon = test system: HT29 colon
# CCRF-CEM leukemia = test system: CCRF-CEM leukemia
# HOP-92 NSCLC = test system: HOP-92 NSCLC
# RPMI-8226 leukemia = test system: RPMI-8226 leukemia
# MALME-3M melanoma = test system: MALME-3M melanoma
# SF-539 CNS = test system: SF-539 CNS
# SK-MEL-5 melanoma = test system: SK-MEL-5 melanoma
# SF-268 CNS = test system: SF-268 CNS
# SR leukemia = test system: SR leukemia
# SN12C renal = test system: SN12C renal
# HOP-62 NSCLC = test system: HOP-62 NSCLC
# SF-295 CNS = test system: SF-295 CNS
# U251 CNS = test system: U251 CNS
# T-47D breast = test system: T-47D breast
# KM12 colon = test system: KM12 colon
# HCT-15 colon = test system: HCT-15 colon
# SK-OV-3 ovarian = test system: SK-OV-3 ovarian
# DU-145 prostate = test system: DU-145 prostate
# OVCAR-8 ovarian = test system: OVCAR-8 ovarian
# MOLT-4 leukemia = test system: MOLT-4 leukemia
# NCI-H226 lung = test system: NCI-H226 lung
# COLO 205 colon = test system: COLO 205 colon
# K-562 leukemia = test system: K-562 leukemia
# MDA-MB-435 = test system: MDA-MB-435
# SNB-75 CNS = test system: SNB-75 CNS
# RXF 393 renal = test system: RXF 393 renal
# HS 578T breast = test system: HS 578T breast
# MCF7 breast = test system: MCF7 breast
# NCI-H460 lung = test system: NCI-H460 lung
# NCI-H522 lung = test system: NCI-H522 lung
# HL-60(TB) leukemia = test system: HL-60(TB) leukemia
# IGROV1 ovarian = test system: IGROV1 ovarian
# BT-549 breast = test system: BT-549 breast
# SNB-19 CNS = test system: SNB-19 CNS
# OVCAR-5 ovarian = test system: OVCAR-5 ovarian
# M14 melanoma = test system: M14 melanoma
# UO-31 renal = test system: UO-31 renal
# ACHN renal = test system: ACHN renal
# OVCAR-3 ovarian = test system: OVCAR-3 ovarian
# HCC-2998 colon = test system: HCC-2998 colon
# 786-0 renal = test system: 786-0 renal
# PC-3 prostate = test system: PC-3 prostate
# A549 NSCLC = test system: A549 NSCLC
# SK-MEL-28 melanoma = test system: SK-MEL-28 melanoma
# HCT-116 colon = test system: HCT-116 colon
# CAKI-1 renal = test system: CAKI-1 renal
# UACC-257 melanoma = test system: UACC-257 melanoma
# TK-10 renal = test system: TK-10 renal
smiles,measurement,setting,value
CCCC(=O)Nc1cc(/C=C/C(=O)N2CC(CCl)c3c2cc(OC(C)=O)c2[nH]cc(C)c32)n(C)c1 (stereo not drawn),TGI,A498 renal,0.000667 µM
same,TGI,EKVX NSCLC,0.00665 µM
same,TGI,SK-MEL-2 melanoma,0.000121 µM
same,TGI,NCI-H23 lung,0.0872 nM
same,TGI,SW-620 colon,> 0.25 µM
same,TGI,OVCAR-4 ovarian,0.0213 µM
same,TGI,NCI/ADR-RES ovarian,0.0121 µM
same,TGI,LOX IMVI melanoma,> 0.25 µM
same,TGI,UACC-62 melanoma,0.0423 nM
same,TGI,MDA-MB-231 breast,> 0.25 µM
same,TGI,HT29 colon,> 0.25 µM
same,TGI,CCRF-CEM leukemia,0.000161 µM
same,TGI,HOP-92 NSCLC,0.000146 µM
same,TGI,RPMI-8226 leukemia,0.00762 µM
same,TGI,MALME-3M melanoma,0.0955 nM
same,TGI,SF-539 CNS,0.000107 µM
same,TGI,SK-MEL-5 melanoma,0.0584 nM
same,TGI,SF-268 CNS,< 2.5e-05 µM
same,TGI,SR leukemia,> 0.25 µM
same,TGI,SN12C renal,0.00519 µM
same,TGI,HOP-62 NSCLC,0.00389 µM
same,TGI,SF-295 CNS,0.000311 µM
same,TGI,U251 CNS,0.105 µM
same,TGI,T-47D breast,0.0689 µM
same,TGI,KM12 colon,0.00247 µM
same,TGI,HCT-15 colon,> 0.134 µM
same,TGI,SK-OV-3 ovarian,0.0691 µM
same,TGI,DU-145 prostate,0.00453 µM
same,TGI,OVCAR-8 ovarian,0.000858 µM
same,TGI,MOLT-4 leukemia,0.00436 µM
same,TGI,NCI-H226 lung,0.000748 µM
same,TGI,COLO 205 colon,0.0432 nM
same,TGI,K-562 leukemia,> 0.197 µM
same,TGI,MDA-MB-435,0.000686 µM
same,TGI,SNB-75 CNS,< 2.5e-05 µM
same,TGI,RXF 393 renal,< 2.5e-05 µM
same,TGI,HS 578T breast,0.00193 µM
same,TGI,MCF7 breast,> 0.0759 µM
same,TGI,NCI-H460 lung,0.000419 µM
same,TGI,NCI-H522 lung,0.0426 nM
same,TGI,HL-60(TB) leukemia,0.00101 µM
same,TGI,IGROV1 ovarian,> 0.25 µM
same,TGI,BT-549 breast,0.00227 µM
same,TGI,SNB-19 CNS,0.0436 µM
Nc1nc(N)c2cc(S(=O)(=O)c3ccccc3)ccc2n1,GI50,OVCAR-5 ovarian,2.21 µM
same,TGI,OVCAR-5 ovarian,> 100 µM
same,GI50,A498 renal,8.33 µM
same,TGI,A498 renal,> 100 µM
same,GI50,EKVX NSCLC,7.13 µM
same,TGI,EKVX NSCLC,> 100 µM
same,GI50,SK-MEL-2 melanoma,25.3 µM
same,TGI,SK-MEL-2 melanoma,> 100 µM
same,GI50,NCI-H23 lung,3.03 µM
same,TGI,NCI-H23 lung,> 100000 nM
same,GI50,M14 melanoma,0.506 µM
same,TGI,M14 melanoma,> 100 µM
same,GI50,SW-620 colon,0.512 µM
same,TGI,SW-620 colon,> 100 µM
same,GI50,OVCAR-4 ovarian,7.2 µM
same,TGI,OVCAR-4 ovarian,> 100 µM
same,GI50,NCI/ADR-RES ovarian,3.52 µM
same,TGI,NCI/ADR-RES ovarian,> 100 µM
same,GI50,UO-31 renal,13.3 µM
same,TGI,UO-31 renal,> 100 µM
same,GI50,ACHN renal,3.27 µM
same,TGI,ACHN renal,> 100 µM
same,GI50,LOX IMVI melanoma,0.516 µM
same,TGI,LOX IMVI melanoma,> 100 µM
same,GI50,UACC-62 melanoma,0.511 µM
same,TGI,UACC-62 melanoma,> 100000 nM
same,GI50,OVCAR-3 ovarian,5.68 µM
same,TGI,OVCAR-3 ovarian,> 100 µM
same,GI50,MDA-MB-231 breast,8.07 µM
same,TGI,MDA-MB-231 breast,> 100 µM
same,GI50,HT29 colon,0.634 µM
same,TGI,HT29 colon,> 100 µM
same,GI50,CCRF-CEM leukemia,2.93 µM
same,TGI,CCRF-CEM leukemia,> 100 µM
same,GI50,HOP-92 NSCLC,4.64 µM
same,TGI,HOP-92 NSCLC,72.8 µM
same,GI50,RPMI-8226 leukemia,6.04 µM
same,TGI,RPMI-8226 leukemia,> 100 µM
same,GI50,MALME-3M melanoma,4.97 µM
same,TGI,MALME-3M melanoma,> 100000 nM
same,GI50,HCC-2998 colon,2.38 µM
same,TGI,HCC-2998 colon,32.2 µM
same,GI50,786-0 renal,1.01 µM
same,TGI,786-0 renal,> 100 µM
same,GI50,SF-539 CNS,2.05 µM
same,TGI,SF-539 CNS,> 100 µM
same,GI50,SK-MEL-5 melanoma,1.14 µM
same,TGI,SK-MEL-5 melanoma,> 100000 nM
same,GI50,SF-268 CNS,3.13 µM
same,TGI,SF-268 CNS,> 100 µM
same,GI50,PC-3 prostate,0.838 µM
same,TGI,PC-3 prostate,> 100 µM
same,GI50,A549 NSCLC,0.622 µM
same,TGI,A549 NSCLC,> 100 µM
same,GI50,SN12C renal,3.21 µM
same,TGI,SN12C renal,> 100 µM
same,GI50,HOP-62 NSCLC,4.14 µM
same,TGI,HOP-62 NSCLC,> 100 µM
same,GI50,SF-295 CNS,0.792 µM
same,TGI,SF-295 CNS,51.9 µM
same,GI50,U251 CNS,1.24 µM
same,TGI,U251 CNS,> 100 µM
same,GI50,T-47D breast,9.57 µM
same,TGI,T-47D breast,> 100 µM
same,GI50,KM12 colon,4.23 µM
same,TGI,KM12 colon,> 100 µM
same,GI50,HCT-15 colon,1.75 µM
same,TGI,HCT-15 colon,> 100 µM
same,GI50,SK-OV-3 ovarian,5.41 µM
same,TGI,SK-OV-3 ovarian,> 100 µM
same,GI50,DU-145 prostate,5.74 µM
same,TGI,DU-145 prostate,> 100 µM
same,GI50,OVCAR-8 ovarian,1.31 µM
same,TGI,OVCAR-8 ovarian,> 100 µM
same,GI50,MOLT-4 leukemia,4.31 µM
same,TGI,MOLT-4 leukemia,> 100 µM
same,GI50,NCI-H226 lung,5.87 µM
same,TGI,NCI-H226 lung,> 100 µM
same,GI50,SK-MEL-28 melanoma,10.6 µM
same,TGI,SK-MEL-28 melanoma,> 100 µM
same,GI50,COLO 205 colon,6.99 µM
same,TGI,COLO 205 colon,> 100000 nM
same,GI50,K-562 leukemia,0.339 µM
same,TGI,K-562 leukemia,> 100 µM
same,GI50,MDA-MB-435,0.487 µM
same,TGI,MDA-MB-435,> 100 µM
same,GI50,SNB-75 CNS,8.86 µM
same,TGI,SNB-75 CNS,> 100 µM
same,GI50,RXF 393 renal,72.5 µM
same,TGI,RXF 393 renal,> 100 µM
same,GI50,HS 578T breast,6.93 µM
same,TGI,HS 578T breast,> 100 µM
same,GI50,HCT-116 colon,0.501 µM
same,TGI,HCT-116 colon,> 100 µM
same,GI50,CAKI-1 renal,3.45 µM
same,TGI,CAKI-1 renal,> 100 µM
same,GI50,MCF7 breast,2.86 µM
same,TGI,MCF7 breast,> 100 µM
same,GI50,UACC-257 melanoma,14.9 µM
same,TGI,UACC-257 melanoma,> 100 µM
same,GI50,NCI-H460 lung,0.417 µM
same,TGI,NCI-H460 lung,> 100 µM
same,GI50,NCI-H522 lung,4.56 µM
same,TGI,NCI-H522 lung,> 100000 nM
same,GI50,TK-10 renal,4.36 µM
same,TGI,TK-10 renal,> 100 µM
same,GI50,HL-60(TB) leukemia,1.64 µM
same,TGI,HL-60(TB) leukemia,31.5 µM
same,GI50,IGROV1 ovarian,4.59 µM
same,TGI,IGROV1 ovarian,> 100 µM
same,GI50,BT-549 breast,6.59 µM
same,TGI,BT-549 breast,92.3 µM
same,GI50,SNB-19 CNS,6.84 µM
same,TGI,SNB-19 CNS,> 100 µM
